# Test results: patent publication US5001048A (priority 1987, dated 1991)
# “And” between values parts separate entries of the source, which are not always exact repeats. Equal values may be shown once. Read-outs that look alike come from different tables or passages of the source.
# Legend:
# [1] = tested on: acetylcholine receptor (AChR); type: binding, Electrophorus electricus; conditions: for % Activity Increase: 24 to 48 hours after immobilization, over nondetergent containing membrane; for stabilization of AChR activity in the membrane (in words): retention of binding activity at immobilization and after storage
# [2] = tested on: immobilized acetylcholine receptor (AChR); test: AChR sensor alternating current impedance response to agent challenge; type: binding, Electrophorus electricus; conditions: for AChR sensor response: 50 to 100 uL
# Method: (§1) All measurements utilized wetted biosensors (i.e., sensors presoaked in deionized water and test buffer). The biosensor was washed with deionized water to a constant output value (that is, it maintained the same impedance value upon further washing). This established a baseline value for the sensor in absence of ligand. Test samples in buffer were then added. Output (changes in impedance, etc) was recorded as a function of time.
# (§2) Two approaches were used to evaluate the functionality of the two types (i.e., receptor and antibody-based) of biosensors. In the first approach, measurements were taken sequentially on control and test sensors ("chips") and compared. This approach can be done quickly for rapid evaluation of a sensor (FIGS. 1 and 3). However, background (i.e., non specific binding to the sensor) is not subtracted out automatically. […] This allows for simultaneous challenge (i.e., challenge of both the control and the receptor-containing biosensor at the same time) and background is automatically subtracted out.
# (§3) In the case in which sequential measurements were used, alternating current measurements were made on the sensors, and changes were recorded in impedance (measured in ohms), capacitance or phase angle. Samples in volumes of 5 to 200 microliters (ul) were analyzed; […].
# (§4) Typically, a sample to be tested (i.e., one thought to contain an analyte of interest) was applied to a sensor which had been previously equilibrated with deionized water and readings of output impedance from the sensor were taken. Equilibration to constant readings occurred within 2 to 10 sec. Readings remained stable for at least the 5 minutes during which the output was routinely monitored. The sensor was then washed with deionized water to background equilibrium, sample was again added and readings were taken. In each case 2 to 5 cycles were carried out in this way.
# [3] = Control sensor (same formulation, no AChR added) impedance response to agent challenge; conditions: 50 to 100 uL
# Method: as §1, §2, §3, §4
# ^b Control sensor is the same formulation as AChR but with no AChR
compound,measurement,setting,value
"CCCCCCCCCCCCCCCC[N+](C)(C)C.[Br-] [CTAB, cetyltrimethylammonium bromide]",% Activity Increase,[1]; detergent 0.5% by volume,4%
same,% Activity Increase,[1]; detergent 1.0% by volume,18%
same,% Activity Increase,[1]; detergent 2.0% by volume,28%
"C[C@H](CCC(=O)O)[C@H]1CC[C@H]2[C@@H]3[C@H](O)C[C@@H]4C[C@H](O)CC[C@]4(C)[C@H]3C[C@H](O)[C@]12C [Sodium cholate, sodium cholate]",% Activity Increase,[1]; detergent 1.0% by volume,110%
same,% Activity Increase,[1]; detergent 2.0% by volume,145%
same,stabilization of AChR activity in the membrane (in words),[1],best stabilizing detergents
"CCCCCCCC[N+](C)(C)CCCS(=O)(=O)[O-] [Zwittergent ™ 3-08, N-octyl-N-N dimethyl-3-amino-1-propane sulfonate]",% Activity Increase,[1]; detergent 1.0% by volume,55% and 30%
same,% Activity Increase,[1]; detergent 2.0% by volume,55% and 38%
glucose,% Change of AChR sensor with respect to control,[2]; agent 0.5 ug/ml,3%
same,AChR sensor response,[2]; agent 0.5 ug/ml,29 K.OMEGA.
same,% Change of AChR sensor with respect to control,[2]; agent 5 ug/ml,0%
same,AChR sensor response,[2]; agent 5 ug/ml,33 K.OMEGA.
same,% Change of AChR sensor with respect to control,[2]; agent 50 ug/ml,6%
same,AChR sensor response,[2]; agent 50 ug/ml,35 K.OMEGA.
same,% Change of AChR sensor with respect to control,[2]; agent 500 ug/ml,5%
same,AChR sensor response,[2]; agent 500 ug/ml,61 K.OMEGA.
same,change in resistance between control and AChR sensors (in words),"[2]; dose-response, Table 5",no change
same,Control sensor response,[3]; agent 0.5 ug/ml,28 K.OMEGA.
same,Control sensor response,[3]; agent 5 ug/ml,33 K.OMEGA.
same,Control sensor response,[3]; agent 50 ug/ml,33 K.OMEGA.
same,Control sensor response,[3]; agent 500 ug/ml,58 K.OMEGA.
octylphenoxy polyethoxyethanol [Triton ™ X-100],% Activity Increase,[1]; detergent 0.1% by volume,12%
same,% Activity Increase,[1]; detergent 0.5% by volume,55%
same,% Activity Increase,[1]; detergent 1.0% by volume,85%
same,% Activity Increase,[1]; detergent 2.0% by volume,110%
same,stabilization of AChR activity in the membrane (in words),[1],best stabilizing detergents
